Entries after “also recorded” stand apart in the source; their conditions may differ. Like-named read-outs stand apart in the source and are kept apart here.
Tests used:
[1] = test system: CXCR4-using HIV-1 strains; assay type: cell-based
CXCR4 [2] = molecular target: T1, CXCR4 (Homo sapiens, UniProt P61073); assay: HTRF dilution series assay on CXCR4 (displacement of red-CXCL12); assay type: binding; settings: for IC50: HEK293 ST-CXCR4 cells, red-CXCL12 20 nM, 2 h 16 °C, one-site competitive model, read-out: HTRF CXCR4-SDF1 IC50; for inhibition of HTRF at high concentrations: dilution series
T1 sequence (P61073 whole entry): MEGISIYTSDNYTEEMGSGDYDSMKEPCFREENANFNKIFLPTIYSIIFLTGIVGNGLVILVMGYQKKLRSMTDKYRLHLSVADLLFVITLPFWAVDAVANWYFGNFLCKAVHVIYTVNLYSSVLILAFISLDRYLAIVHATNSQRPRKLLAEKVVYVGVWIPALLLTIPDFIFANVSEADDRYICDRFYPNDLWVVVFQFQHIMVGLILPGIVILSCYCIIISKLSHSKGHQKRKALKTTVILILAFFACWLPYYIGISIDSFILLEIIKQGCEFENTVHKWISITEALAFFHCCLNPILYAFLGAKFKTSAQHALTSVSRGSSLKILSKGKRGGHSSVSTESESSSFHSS
Method: To obtain information on the structural requirements necessary for the interaction with CXCR4, we performed dilution series experiments (see Section 3.4.) by varying the concentrations of bis-imidazoline compounds in the HTRF assay used for the screening campaign (Table 1 and Figure 1A).
A three-fold serial dilution in DMSO was performed for each compound. Each concentration was tested in duplicate. For these experiments, Tag-lite CXCR4 and Tag-lite CXCR7 cell lines (5000 cells per well) were used. […] The IC50 values were determined with the Prism Software version 9 (Graph-Pad Software, San Diego, USA) using a one-site competitive binding model.
Data points are means ± SEM for three independent experiments.

HIV-1 NL4-3 Env = assay: microbe, parasite or virus in culture; assay type: cell-based; settings: Human immunodeficiency virus 1, NL43, 48 h, read-out: extrapolated IC50, infection with NL4-3 Env
HIV-1 X4-28 Env = assay: microbe, parasite or virus in culture; assay type: cell-based; settings: Human immunodeficiency virus 1, 48 h, read-out: extrapolated IC50, infection with X4-28 Env
endogenous CXCR4 = endogenous CXCR4 (Homo sapiens, UniProt P61073); assay: Displacement of 125I-labeled CXCL12 binding in blood mononuclear cells; settings: blood mononuclear cells from a healthy donor, data not shown
Sequence of endogenous CXCR4 (P61073 whole entry): as above

CXCR4 [3] = molecular target: T1, CXCR4; assay: HTRF Tag-lite primary screening: red-CXCL12 binding to HEK293 cells expressing ST-CXCR4; settings: single dose 6.6 µg/mL (compound final concentration in µM in brackets), HTRF ratio of compound divided by that of AMD3100 15 µM, 20 nM red-CXCL12, hit < 1.3
Description: As a starting point of this study, we set up a high-throughput screening of 6851 compounds available at the time from the CERMN (Centre d’Etude et de Recherche sur le Médicament de Normandie) chemical library for their ability to interact with CXCR4 (see Section 3.3 for details). We applied a homogeneous cell-based binding assay using Homogeneous Time-Resolved Fluorescence resonance energy transfer (HTRF) Tag-lite technology. […] We investigated the capacity of the compounds to inhibit energy transfer between the Lumi4-Tb donor and acceptor red-CXCL12, which results in a decrease in the HTRF signal (i.e., the ratio between the acceptor and donor fluorescence signals at 665 and 620 nm, respectively). […] Each 384-well plate was analyzed independently. First, using negative and positive controls, the value of the Z′ factor [52] was determined. […]
All compounds are in DMSO at a concentration of 3.3 mg/mL (average concentration of 9.85 ± 3.7 mM). […] After a 2 h incubation at 16 °C, the fluorescence emission was measured at 620 nm and 665 nm using an excitation wavelength at 343 nm on a Safire2 (Tecan, Männedorf, Switzerland) microplate reader. The HTRF ratio was defined as following: Ratio = (Fluorescence intensity at 665 nm/Fluorescence intensity at 620 nm) × 10^4. […]

[4] = primary CD4+ T lymphocytes, NL4-3 and X4-28 Envs

Row | Compound | IC50 (CXCR4 [2]) | inhibition of HTRF at high concentrations (CXCR4 [2]) | anti-HIV-1 activity [1, 4] | further results
1 | c1cc(CN2CCCNCCNCCCNCC2)ccc1CN1CCCNCCNCCCNCC1 [AMD3100, reference compound] |  |  |  | anti-HIV-1 activity [1]: by far the most potent antiviral activity of all tested molecules
2 | C(CCCCCNC1=NCCN1)CCCCCNC1=NCCN1 [mr34200] | 15.5 µM |  |  | 
3 | C(CCCCNC1=NCCN1)CCCCNC1=NCCN1 [mr20348] | 6.62 ± 4.31 µM |  |  | 
4 | C(CCCCCCNC1=NCCN1)CCCCCNC1=NCCN1 [mr20350] |  | fully inhibited HTRF | observed; also recorded: strongest anti-HIV-1 activity | IC50 (HIV-1 NL4-3 Env): 2.6 µM; IC50 (HIV-1 X4-28 Env): 0.72 µM
5 | C(CCCCCNC1=NCCN1)CCCCNC1=NCCN1 [mr20349] | 0.47 ± 0.36 µM | fully inhibited HTRF | observed | IC50 (HIV-1 NL4-3 Env): 30 µM; IC50 (HIV-1 X4-28 Env): 1.1 µM; displacement of 125I-labeled CXCL12 binding (endogenous CXCR4): confirmed
6 | C(CCCCNC1=NCCN1)CCCNC1=NCCN1 [mr20347] | 0.35 ± 0.09 µM | fully inhibited HTRF | not and no effect | 
7 | C(CCCNC1=NCCN1)CCCNC1=NCCN1 [mr20346] | 1.85 ± 0.93 µM |  |  | HTRF CXCR4-SDF1 Relative HTRF Ratio (CXCR4 [3]): 1.87 (12.6)
8 | C(CCCNC1=NCCN1)CCNC1=NCCN1 [mr20345] | 40.9 ± 23 µM |  |  | HTRF CXCR4-SDF1 Relative HTRF Ratio (CXCR4 [3]): 2.78 (13.0)
